The record followed here is US20230181608A1, “NUTRIENT COMPOSITION, FOOD INCLUDING THE SAME AND USE OF THE NUTRIENT COMPOSITION” (Heilongjiang Feihe Dairy Co., Ltd., priority 2021, published 2023).

What all share (format): cell-based, newborn rats and mice
Experiment [1] relates to oligodendrocyte precursor cells (MAG positive cells). Briefly: number of MAG positive cells after 18 DIVs (OPC differentiation/myelination), primary mixed culture of neurons and OL. The conditions noted are these: for effect on the number of MAG positive cells (myelination of oligodendrocyte precursor cells), in words: in comparison with the blank control group / with the components alone. The procedure: (§1) All experiments were approved by ethics, and the primary mixed culture of neurons and OL were carried out according to the following steps. Briefly, the forebrain of newborn rats and mice were dissociated with trypsin (Trypsin EDTA 1X, PAN BIOTECH) at 37° C. for 20 minutes. After addition of Dulbecco modified Eagle medium (DMEM, PAN BIOTECH) containing DNAase I Grade II (0.1 mg/ml, PAN BIOTECH) and 10% fetal bovine serum (FCS, GIBCO), the reaction was stopped. The cells were mechanically separated three times through a 10 ml pipette, and then centrifuged at 4° C. under 515 g for 10 minutes.
(§2) Living cells were inoculated in 96-well plates (20000/well), which were pre-coated with poly-L-lysine (BD Falcon) and laminin (Sigma). The culture medium consists of Neurobasal (GIBCO) added with 2% B27 (GIBCO), 2 mM L-glutamine (L Glu, PAN BIOTECH), 2% P/S solution (PAN BIOTECH), 1% FCS and 10 ng/ml platelet-derived growth factor (PDGF-AA, PAN BIOTECH). The 96-well plates are stored in a humidified incubator, at a temperature of 37° C. and with an environment of air (95%) - CO2 (5%).
(§3) A same number of cells were placed on 48-well plates, and then incubated for 12, 18 or 30 DIVs. Half of the medium were replaced every other day. A mixture or separate nutrition were added to the fresh medium (the nutrient composition prepared above, containing 2′-FL, choline and/or milk fat global membrane).
(§4) After 12, 18 and 30 DIVs, the cells were fixed with a cold mixture of 95% ethanol and acetic acid (5%) for 5 minutes. The non-specific sites were then blocked for 15 minutes at room temperature with a phosphate buffered saline (PBS) solution containing 0.1% saponin (Sigma) and 1% FCS (GIBCO).
At 18 DIVs, nerve cells were co-incubated with mouse monoclonal antibody MAG (dilution: 1/400, Millipore, MAB1567) and neurofilament protein antibody (dilution: 1/500, Sigma, N4142) for 2 h. Then a secondary goat […] antibody (dilution: 1/400, Sigma, SAB4600042) and a secondary goat anti-rabbit antibody (dilution: 1/400, SIGMA, SAB4600084) were used to co-incubate at room temperature for 1 h.
(§5) ImageXpress equipped with LED lights (360/480/565 for excitation and 460/535/620 for emission) is used for 20× amplification. All images are acquired using the same settings.
The differentiation of OPC into OL was evaluated by counting the number of MAG positive cells in cell culture. The results were expressed as the average number of cells per image and per well. The morphological maturity of MAG positive cells were assessed by measuring the average surface area of MAG positive cells in 18 DIV wells ([…]/image/well).
(§6) Cells were inoculated on a 96-well plate and cultured for a certain period of time. Half of the culture medium was replaced every other day. Varying concentrations of mixed or separate 2′-FL mixtures were added to the special culture medium for fresh primary cells (added on day 12, 18 and 30, respectively). 6 replicas for each sample. […] The blank control group, positive control group and sample intervention group were compared, respectively. The effects of milk fat global membrane, 2′-FL and choline, alone or in mixture, on OPC population, OL maturation and differentiation, myelin formation and neurite growth was determined by immunohistochemistry (MBP, NF, A2B5). See Table 2 below for specific experimental dosage.
In order to measure the effect of mixed nutrition or single nutrition treatment on OPC cell myelination, we evaluated the number of positive cells labelled MAG after 18 DIVs.

Experiment [2] concerns oligodendrocyte precursor cells (MBP positive cells). Put plainly: number of MBP positive cells after 30 DIVs (OPC/OL maturation), primary mixed culture of neurons and OL. To be noted: for effect on the number of MBP positive cells (maturation of oligodendrocyte precursor cells), in words: in comparison with the blank control group / with the components alone. The procedure: as §1, §2, §3, §4
At 30 DIVs, nerve cells were co-incubated with mouse monoclonal antibody MBP (dilution: 1/1000, Novus, NBP1-05204) and neurofilament protein antibody (dilution: 1/500, Sigma, N4142) for 2 hours. Then a secondary goat anti-mouse antibody (dilution: 1/800, Sigma, SAB4600042) and a secondary goat anti-rabbit antibody (dilution: 1/400, SIGMA, SAB4600084) were used to co-incubate at room temperature for 1 h.
as §5
At 30 DIVs, the maturity of OL was estimated by calculating the number of MBP positive cells (average number of cells per imge, per well) and the average surface area of MBP positive cells at 30 DIVs ([…], per image, per well).
as §6
In order to measure the effect of mixed nutrition or single nutrition treatment on OPC cell maturation, we evaluated the number of MBP positive cells after 30DIVs.

Experiment [3] deals with oligodendrocyte precursor cells (A2B5 positive cells). Briefly: number of A2B5 positive cells (number of OPCs) after 12 DIVs, primary mixed culture of neurons and OL. The conditions noted are these: for effect on the number of A2B5 positive cells (proliferation of oligodendrocyte precursor cells), in words: in comparison with the blank control group / with the components alone. The procedure:
All experiments were approved by ethics, and the primary mixed culture of neurons and OL were carried out according to the following steps. Briefly, the forebrain of newborn rats and mice were dissociated with trypsin (Trypsin EDTA 1X, PAN BIOTECH) at 37° C. for 20 minutes. After addition of Dulbecco modified Eagle medium (DMEM, PAN BIOTECH) containing DNAase I Grade II (0.1 mg/ml, PAN BIOTECH) and 10% fetal bovine serum (FCS, GIBCO), the reaction was stopped. The cells were mechanically separated three times through a 10 ml pipette, and then centrifuged at 4° C. under 515 g for 10 minutes. Living cells were inoculated in 96-well plates (20000/well), which were pre-coated with poly-L-lysine (BD Falcon) and laminin (Sigma). The culture medium consists of Neurobasal (GIBCO) added with 2% B27 (GIBCO), 2 mM L-glutamine (L Glu, PAN BIOTECH), 2% P/S solution (PAN BIOTECH), 1% FCS and 10 ng/ml platelet-derived growth factor (PDGF-AA, PAN BIOTECH). The 96-well plates are stored in a humidified incubator, at a temperature of 37° C. and with an environment of air (95%) - CO2 (5%). […] Half of the medium were replaced every other day. A mixture or separate nutrition were added to the fresh medium (the nutrient composition prepared above, containing 2′-FL, choline and/or milk fat global membrane). After 12, 18 and 30 DIVs, the cells were fixed with a cold mixture of 95% ethanol and acetic acid (5%) for 5 minutes. The non-specific sites were then blocked for 15 minutes at room temperature with a phosphate buffered saline (PBS) solution containing 0.1% saponin (Sigma) and 1% FCS (GIBCO). […] Finally, a secondary goat anti-rabbit antibody (diluted 1/400, SIGMA, SAB460084) was used to co-incubate at room temperature for 1 h. ImageXpress equipped with LED lights (360/480/565 for excitation and 460/535/620 for emission) is used for 20× amplification. All images are acquired using the same settings. […] Cells were inoculated on a 96-well plate and cultured for a certain period of time. Half of the culture medium was replaced every other day. […] The blank control group, positive control group and sample intervention group were compared, respectively. […] See Table 2 below for specific experimental dosage.

The mark [4] stands for this setting: high dosage: 2′-FL 20, milk fat globule membrane 55, choline 6.5 mg/ml (those present).
The mark [5] stands for this setting: low dosage: 2′-FL 0.2, milk fat globule membrane 0.55, choline 0.065 mg/ml (those present).
Where [6] appears, read: medium dosage: 2′-FL 2, milk fat globule membrane 5.5, choline 0.65 mg/ml (those present).
Where [7] appears, read: low dosage: milk fat globule membrane 0.55 or choline 0.065 mg/ml.

SMILES strings stand for the structures.

Consider `CC1O[C@@H](OC2[C@H](O[C@@H]3C(CO)O[C@H](O)C(O)[C@@H]3O)OC(CO)[C@H](O)[C@H]2O)C(O)[C@H](O)[C@@H]1O` (stereo partly drawn) [2′-FL, 2′-fucosyl lactose], for which the “increase of the number of MAG positive cells relative to the blank control group (Cell Experiment Example 1)” value in experiment [1] (setting [4]) was 21.33; in experiment [1] (setting [6]), 35.66. Further, the “number of MAG positive cells (mean±standard deviation)” value in experiment [1] (setting [4]) was determined as 62.00±4.00; in experiment [1] (setting [5]) it was 54.00±6.08; in experiment [1] (setting [6]) it was 76.33±4.51. Also, the “effect on the number of MAG positive cells (myelination of oligodendrocyte precursor cells), in words” value in experiment [1] is listed as “could increase the number of MAG positive cells”. Moreover, the “increase of the number of MBP positive cells relative to the blank control group (Cell Experiment Example 1)” value in experiment [2] (setting [4]) stood at 20.67; in experiment [2] (setting [6]), 42.34. The “number of MBP positive cells (mean±standard deviation)” value in experiment [2] (setting [4]) is 83.00±5.29; in experiment [2] (setting [5]), 104.00±4.58; in experiment [2] (setting [6]) it was 104.67±5.03 * *. For the same compound, in experiment [2], the “effect on the number of MBP positive cells (maturation of oligodendrocyte precursor cells), in words” value is on record as “can increase the number of MBP positive cells”. Further, the “increase of the number of A2B5 positive cells relative to the blank control group (Cell Experiment Example 1)” value in experiment [3] (setting [4]) came out at 18.33; in experiment [3] (setting [6]), 39.33. Also, the entries for the “number of A2B5 positive cells (mean±standard deviation)” value in experiment [3] (setting [4]), in experiment [3] (setting [5]) and in experiment [3] (setting [6]) were 135.00±6.08, 151.33±4.73 and 156.00 ±5.57, respectively. The “effect on the number of A2B5 positive cells (proliferation of oligodendrocyte precursor cells), in words” value in experiment [3] is recorded as “may increase the number of A2B5 positive cells”.

With `CC(C)CCC[C@@H](C)[C@H]1CC[C@H]2[C@@H]3CCC4=CC(=NO)CC[C@]4(C)[C@H]3CC[C@]12C` [Olesoxime], in experiment [1] (positive control, 300 nM), the “number of MAG positive cells (mean±standard deviation)” value amounted to 87.00±4.36. For the same compound, the “number of MBP positive cells (mean±standard deviation)” value in experiment [2] (positive control, 300 nM) was determined as 124.00±3.61. Besides, the “number of A2B5 positive cells (mean±standard deviation)” value in experiment [3] (positive control, 300 nM) was 171.33±3.51.

`C[N+](C)(C)CCO.[Cl-]` [choline, choline chloride]: the “increase of the number of MAG positive cells relative to the blank control group (Cell Experiment Example 1)” value turned out to be 40.66 in experiment [1] (setting [4]), 25.66 in experiment [1] (setting [7]) and 53.33 in experiment [1] (setting [6]). In addition, the “number of MAG positive cells (mean±standard deviation)” value in experiment [1] (setting [4]) is reported as 81.33±3.21; in experiment [1] (setting [5]), 66.33±6.03; in experiment [1] (setting [6]), 94.00±4.58. For the same compound, the “effect on the number of MAG positive cells (myelination of oligodendrocyte precursor cells), in words” value in experiment [1] is “could increase the number of MAG positive cells”. The “increase of the number of MBP positive cells relative to the blank control group (Cell Experiment Example 1)” value in experiment [2] (setting [4]) was found to be 5.67; in experiment [2] (setting [7]), 51; in experiment [2] (setting [6]), 71.34. Also, the “number of MBP positive cells (mean±standard deviation)” value was found to be 68.00±2.65 in experiment [2] (setting [4]), 113.33±5.69 in experiment [2] (setting [5]) and 133.67±4.16 in experiment [2] (setting [6]). Further, in experiment [2], the “effect on the number of MBP positive cells (maturation of oligodendrocyte precursor cells), in words” value is recorded as “can increase the number of MBP positive cells”. In addition, the “increase of the number of A2B5 positive cells relative to the blank control group (Cell Experiment Example 1)” value in experiment [3] (setting [4]) was -9; in experiment [3] (setting [7]), 50.66; in experiment [3] (setting [6]), 109. Besides, the entries for the “number of A2B5 positive cells (mean±standard deviation)” value in experiment [3] (setting [4]), in experiment [3] (setting [5]) and in experiment [3] (setting [6]) were 107.67±6.03, 167.33±3.51 and 225.67±5.03, respectively. The “effect on the number of A2B5 positive cells (proliferation of oligodendrocyte precursor cells), in words” value in experiment [3] is “may increase the number of A2B5 positive cells”.
